From ChEMBL document CHEMBL1201862, “PubChem BioAssay data set” (2004)
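Test compounds were applied to cells in 96-well plates for 48 hours at 5 doses. GI50: concentration for 50% inhibition of growth.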 Calls of active or inactive are those of the source. Cut-off read from the data, not from the text of the source: active = GI50 up to about 1.1 µM and inactive = higher.

What was measured:
Experiment in all cases: growth of human tumour cells (NCI), 48 h
T47D = tested on: T47D
OVCAR-4 = tested on: OVCAR-4
NCI-H460 = tested on: NCI-H460
EKVX = tested on: EKVX
UACC-257 = tested on: UACC-257
NCI-H522 = tested on: NCI-H522
SR = tested on: SR
OVCAR-5 = tested on: OVCAR-5
TK-10 = tested on: TK-10
M14 = tested on: M14
MDA-N = tested on: MDA-N
SK-MEL-5 = tested on: SK-MEL-5
MDA-MB-231 = tested on: MDA-MB-231
SK-OV-3 = tested on: SK-OV-3
HCC 2998 = tested on: HCC 2998
K562 = tested on: K562
NCI-H226 = tested on: NCI-H226
U-251 = tested on: U-251
RPMI-8226 = tested on: RPMI-8226

SMILES | GI50 (T47D) | GI50 (OVCAR-4) | GI50 (NCI-H460) | GI50 (EKVX) | GI50 (UACC-257) | GI50 (NCI-H522) | GI50 (SR) | GI50 (OVCAR-5) | GI50 (TK-10) | GI50 (M14) | GI50 (MDA-N) | GI50 (SK-MEL-5) | GI50 (MDA-MB-231) | GI50 (SK-OV-3) | GI50 (HCC 2998) | GI50 (K562) | GI50 (NCI-H226) | GI50 (U-251) | GI50 (RPMI-8226)
COc1cc(C2c3cc4c(cc3OC(NNc3ccccc3)C2C)OCO4)cc(OC)c1OC (stereo unspecified) | 2.43 µM (inactive) | 4.94 µM (inactive) | 1.02 µM (active) | 1.73 µM (inactive) | 2.07 µM (inactive) | 0.977 µM (active) | 0.673 µM (active) | 1.69 µM (inactive) | 2.48 µM (inactive) | 0.869 µM (active) | 0.255 µM (active) | 1.32 µM (inactive) | 3.26 µM (inactive) | 2.08 µM (inactive) | 0.953 µM (active) | 0.437 µM (active) | 1.92 µM (inactive) | 1.12 µM (inactive) | 1.43 µM (inactive)
C1CCC2C(C1)CCCC2NC1=NCCO1 (stereo unspecified) | > 100 µM (inactive) | > 100 µM (inactive) | > 100 µM (inactive) | > 100 µM (inactive) | 69.3 µM (inactive) | > 100 µM (inactive) | 45 µM (inactive) | > 100 µM (inactive) | > 100 µM (inactive) | 40 µM (inactive) | > 100 µM (inactive) | 70 µM (inactive) | > 100 µM (inactive) | > 100 µM (inactive) | 72.9 µM (inactive) | > 100 µM (inactive) | > 100 µM (inactive) | > 100 µM (inactive) | 92.5 µM (inactive)
CCOP(=O)(OCC)c1c(C(=O)OC)cc(=O)[nH]c1-c1ccc(C)cc1 | 2.58 µM (inactive) | 8.2 µM (inactive) | 19.1 µM (inactive) | 3.73 µM (inactive) | 15.6 µM (inactive) | 0.968 µM (active) | 3.03 µM (inactive) | 5.64 µM (inactive) | 14.4 µM (inactive) | 11.6 µM (inactive) | 24.8 µM (inactive) | 13.3 µM (inactive) | 25.1 µM (inactive) | 22.8 µM (inactive) | 18.1 µM (inactive) | 10.4 µM (inactive) | 9.31 µM (inactive) | 13.1 µM (inactive) | 5.27 µM (inactive)
CCc1nc(N)nc(N)c1-c1ccc2nnn(O)c2c1 | > 100 µM (inactive) | > 100 µM (inactive) | > 72.8 µM (inactive) | > 100 µM (inactive) | > 100 µM (inactive) | > 100 µM (inactive) | > 100 µM (inactive) | > 100 µM (inactive) | > 100 µM (inactive) | > 100 µM (inactive) | > 100 µM (inactive) | > 100 µM (inactive) | > 100 µM (inactive) | > 100 µM (inactive) | > 100 µM (inactive) | 76.2 µM (inactive) | > 100 µM (inactive) | > 100 µM (inactive) | > 100 µM (inactive)
Cc1cc(=O)oc2cc3oc(N(C)c4ccccc4)nc(=O)c3cc12 | > 100 µM (inactive) | > 100 µM (inactive) | > 100 µM (inactive) | > 100 µM (inactive) | > 100 µM (inactive) | 58.9 µM (inactive) | 82.2 µM (inactive) | > 100 µM (inactive) | > 100 µM (inactive) | > 100 µM (inactive) | > 100 µM (inactive) | > 100 µM (inactive) | > 100 µM (inactive) | > 100 µM (inactive) | > 100 µM (inactive) | > 100 µM (inactive) | > 100 µM (inactive) | 56 µM (inactive) | > 100 µM (inactive)
COC(=O)c1c(OC(C)=O)ccc2c1c1cc3ccccc3c(OC(C)=O)c1n2C | 4.69 µM (inactive) | 19.7 µM (inactive) | 10.4 µM (inactive) | 41.3 µM (inactive) | – | 4.97 µM (inactive) | 3.69 µM (inactive) | 53.5 µM (inactive) | 28.6 µM (inactive) | 29.4 µM (inactive) | 33.8 µM (inactive) | 3.07 µM (inactive) | 30 µM (inactive) | 6.65 µM (inactive) | 33.6 µM (inactive) | 21.4 µM (inactive) | 37.2 µM (inactive) | 61 µM (inactive) | 8.63 µM (inactive)
COc1ccc(-n2c(SC(CN3CCOCC3)CN3CCCC3=O)nc3ccccc3c2=O)cc1 (stereo unspecified) | > 100 µM (inactive) | 98.6 µM (inactive) | > 100 µM (inactive) | > 100 µM (inactive) | > 100 µM (inactive) | > 100 µM (inactive) | > 100 µM (inactive) | > 100 µM (inactive) | 95.1 µM (inactive) | > 100 µM (inactive) | > 100 µM (inactive) | > 100 µM (inactive) | > 100 µM (inactive) | > 100 µM (inactive) | > 100 µM (inactive) | > 100 µM (inactive) | 40.8 µM (inactive) | > 100 µM (inactive) | > 100 µM (inactive)
O=C(Nc1cc(Cl)c(I)c(Cl)c1)C(F)(F)F | 25.8 µM (inactive) | 31.1 µM (inactive) | 27.1 µM (inactive) | 18.3 µM (inactive) | 45.6 µM (inactive) | 21.7 µM (inactive) | 30.8 µM (inactive) | 22.8 µM (inactive) | – | 23.2 µM (inactive) | 35.8 µM (inactive) | 18.7 µM (inactive) | 30.1 µM (inactive) | 31 µM (inactive) | 20 µM (inactive) | 28.2 µM (inactive) | 23.1 µM (inactive) | 40.4 µM (inactive) | 31.1 µM (inactive)
CCN(CC)Cc1ccccc1CC(=O)N1c2ccccc2C(=O)Nc2cccnc21 | > 100 µM (inactive) | > 100 µM (inactive) | > 100 µM (inactive) | > 100 µM (inactive) | > 100 µM (inactive) | > 100 µM (inactive) | 34.3 µM (inactive) | > 100 µM (inactive) | > 100 µM (inactive) | > 100 µM (inactive) | > 100 µM (inactive) | > 100 µM (inactive) | > 100 µM (inactive) | > 100 µM (inactive) | > 100 µM (inactive) | 79.6 µM (inactive) | > 100 µM (inactive) | > 100 µM (inactive) | > 100 µM (inactive)
N=c1c2c(=S)n(-c3ccccc3)c(=S)n(-c3ccccc3)c2nc(SCCN2CCOCC2)n1-c1ccccc1 | 2.69 µM (inactive) | 1.76 µM (inactive) | 2.49 µM (inactive) | 3.16 µM (inactive) | 2.11 µM (inactive) | 1.67 µM (inactive) | 0.475 µM (active) | 18.4 µM (inactive) | 1.71 µM (inactive) | 1.93 µM (inactive) | 2.26 µM (inactive) | 2.73 µM (inactive) | 2.12 µM (inactive) | 6.1 µM (inactive) | 1.77 µM (inactive) | 1.47 µM (inactive) | 7.13 µM (inactive) | 1.99 µM (inactive) | 1.04 µM (active)
COc1ccc(C(C)NNC(=O)c2cc[n+]([BH2-]C#N)cc2)cc1F (stereo unspecified) | > 100 µM (inactive) | > 100 µM (inactive) | > 100 µM (inactive) | > 100 µM (inactive) | > 100 µM (inactive) | > 100 µM (inactive) | > 100 µM (inactive) | > 100 µM (inactive) | > 100 µM (inactive) | > 100 µM (inactive) | > 100 µM (inactive) | > 100 µM (inactive) | > 100 µM (inactive) | > 100 µM (inactive) | > 100 µM (inactive) | > 100 µM (inactive) | > 100 µM (inactive) | > 100 µM (inactive) | > 100 µM (inactive)
CC(=O)NC(=N/N=C1/C(=O)Nc2ccc(C)cc21)NC(C)=O | > 100 µM (inactive) | > 100 µM (inactive) | > 100 µM (inactive) | > 100 µM (inactive) | > 100 µM (inactive) | > 100 µM (inactive) | > 100 µM (inactive) | > 100 µM (inactive) | > 100 µM (inactive) | > 100 µM (inactive) | > 100 µM (inactive) | > 100 µM (inactive) | > 100 µM (inactive) | > 100 µM (inactive) | > 100 µM (inactive) | > 100 µM (inactive) | 98.2 µM (inactive) | > 100 µM (inactive) | > 100 µM (inactive)
COc1cc(OC)c2c(=O)cc(-c3ccccc3F)[nH]c2c1 | 95.1 µM (inactive) | 14.2 µM (inactive) | 37.9 µM (inactive) | 86.5 µM (inactive) | > 100 µM (inactive) | 27 µM (inactive) | 60.8 µM (inactive) | 73.3 µM (inactive) | 39.9 µM (inactive) | 39.1 µM (inactive) | 25.8 µM (inactive) | 30.3 µM (inactive) | 76.7 µM (inactive) | 91.2 µM (inactive) | 18.6 µM (inactive) | 53.3 µM (inactive) | 23.7 µM (inactive) | 35.8 µM (inactive) | 57.8 µM (inactive)
C[C@@H]1C(O)CC[C@H](C)C12CC=CC2=O (stereo partly specified) | > 100 µM (inactive) | > 100 µM (inactive) | > 100 µM (inactive) | > 100 µM (inactive) | > 100 µM (inactive) | > 100 µM (inactive) | > 100 µM (inactive) | > 100 µM (inactive) | > 100 µM (inactive) | – | > 100 µM (inactive) | > 100 µM (inactive) | > 100 µM (inactive) | > 100 µM (inactive) | > 100 µM (inactive) | > 100 µM (inactive) | > 100 µM (inactive) | > 100 µM (inactive) | > 100 µM (inactive)
CC/C(N)=N\NC(=O)OC(C)(C)C | > 100 µM (inactive) | > 100 µM (inactive) | – | > 100 µM (inactive) | > 100 µM (inactive) | > 100 µM (inactive) | > 100 µM (inactive) | > 100 µM (inactive) | > 100 µM (inactive) | > 100 µM (inactive) | > 100 µM (inactive) | > 100 µM (inactive) | > 100 µM (inactive) | > 100 µM (inactive) | > 100 µM (inactive) | > 100 µM (inactive) | > 100 µM (inactive) | > 100 µM (inactive) | > 100 µM (inactive)
